Experimental data as given in article PMC10176470, “Engaging a Non-catalytic Cysteine Residue Drives Potent and Selective Inhibition of Caspase-6” (Journal of the American Chemical Society, 2023).

Assays:
Assay type in all cases: cell-based
[1] = biological target: proteins of HEK293T cells transiently overexpressing caspase-6 (Homo sapiens, UniProt P62424); details: exp_ref Probe; protein RPL7A (P62424); analysis C6
[2] = biological target: proteins of HEK293T cells transiently overexpressing caspase-6 (Homo sapiens, UniProt P62913); details: protein RPL11 (P62913)
[3] = biological target: T1, proteins of HEK293T cells transiently overexpressing caspase-6 (Homo sapiens, UniProt Q92945); details: protein KHSRP (Q92945)
T1 sequence (Q92945 1-711): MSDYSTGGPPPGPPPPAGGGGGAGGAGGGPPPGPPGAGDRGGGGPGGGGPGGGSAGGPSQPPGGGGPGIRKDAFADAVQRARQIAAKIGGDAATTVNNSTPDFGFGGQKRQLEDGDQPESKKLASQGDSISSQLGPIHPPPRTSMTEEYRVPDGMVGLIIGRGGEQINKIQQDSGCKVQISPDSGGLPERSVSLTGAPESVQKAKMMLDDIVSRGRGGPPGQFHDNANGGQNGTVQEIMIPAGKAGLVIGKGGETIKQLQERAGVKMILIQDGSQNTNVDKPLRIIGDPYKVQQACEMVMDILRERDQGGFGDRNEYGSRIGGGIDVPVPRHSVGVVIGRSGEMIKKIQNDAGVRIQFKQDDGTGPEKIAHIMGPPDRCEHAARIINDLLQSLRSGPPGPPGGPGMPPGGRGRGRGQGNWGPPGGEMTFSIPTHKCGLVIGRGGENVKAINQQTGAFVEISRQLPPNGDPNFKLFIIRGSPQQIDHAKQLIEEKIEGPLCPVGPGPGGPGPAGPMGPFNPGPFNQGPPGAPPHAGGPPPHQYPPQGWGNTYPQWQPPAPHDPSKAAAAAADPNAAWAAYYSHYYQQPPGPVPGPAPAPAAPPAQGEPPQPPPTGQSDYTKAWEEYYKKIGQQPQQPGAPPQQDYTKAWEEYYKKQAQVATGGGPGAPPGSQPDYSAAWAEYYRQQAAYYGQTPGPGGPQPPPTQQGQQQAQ

[4] = biological target: proteins of HEK293T cells transiently overexpressing caspase-6 (Homo sapiens, UniProt Q92598); details: exp_ref Probe; protein HSPH1 (Q92598); analysis C6
proteins of HEK293T cells transiently overexpressing caspase-6 (Homo sapiens, UniProt Q92598), sequence (Q92598 whole entry): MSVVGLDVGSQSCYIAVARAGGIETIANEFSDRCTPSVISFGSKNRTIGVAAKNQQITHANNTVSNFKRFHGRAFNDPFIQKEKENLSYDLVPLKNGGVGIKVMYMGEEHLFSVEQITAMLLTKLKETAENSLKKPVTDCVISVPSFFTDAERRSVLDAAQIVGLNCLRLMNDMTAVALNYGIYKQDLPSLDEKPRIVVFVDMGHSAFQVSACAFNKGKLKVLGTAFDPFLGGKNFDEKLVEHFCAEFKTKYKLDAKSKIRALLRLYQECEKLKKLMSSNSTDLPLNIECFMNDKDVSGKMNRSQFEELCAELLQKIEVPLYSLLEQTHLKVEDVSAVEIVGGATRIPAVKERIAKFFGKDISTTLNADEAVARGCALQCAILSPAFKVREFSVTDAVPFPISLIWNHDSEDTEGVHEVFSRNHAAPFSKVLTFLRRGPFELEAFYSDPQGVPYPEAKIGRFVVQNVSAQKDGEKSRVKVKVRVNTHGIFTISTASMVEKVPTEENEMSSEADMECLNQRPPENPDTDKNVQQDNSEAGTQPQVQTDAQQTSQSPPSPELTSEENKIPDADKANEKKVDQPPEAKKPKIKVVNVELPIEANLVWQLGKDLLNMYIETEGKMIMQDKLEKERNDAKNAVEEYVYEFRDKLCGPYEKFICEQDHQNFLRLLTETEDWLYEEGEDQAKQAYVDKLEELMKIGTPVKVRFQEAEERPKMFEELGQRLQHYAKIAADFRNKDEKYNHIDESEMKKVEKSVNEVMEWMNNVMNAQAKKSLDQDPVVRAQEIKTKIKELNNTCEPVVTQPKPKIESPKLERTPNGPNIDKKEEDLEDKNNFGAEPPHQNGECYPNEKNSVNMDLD

[5] = biological target: proteins of HEK293T cells transiently overexpressing caspase-6 (Homo sapiens, UniProt P05023); details: exp_ref Probe; protein ATP1A1 (P05023); analysis C6
[6] = biological target: proteins of HEK293T cells transiently overexpressing caspase-6 (Homo sapiens, UniProt Q13263); details: protein TRIM28 (Q13263)
proteins of HEK293T cells transiently overexpressing caspase-6 (Homo sapiens, UniProt Q13263), sequence (Q13263 whole entry): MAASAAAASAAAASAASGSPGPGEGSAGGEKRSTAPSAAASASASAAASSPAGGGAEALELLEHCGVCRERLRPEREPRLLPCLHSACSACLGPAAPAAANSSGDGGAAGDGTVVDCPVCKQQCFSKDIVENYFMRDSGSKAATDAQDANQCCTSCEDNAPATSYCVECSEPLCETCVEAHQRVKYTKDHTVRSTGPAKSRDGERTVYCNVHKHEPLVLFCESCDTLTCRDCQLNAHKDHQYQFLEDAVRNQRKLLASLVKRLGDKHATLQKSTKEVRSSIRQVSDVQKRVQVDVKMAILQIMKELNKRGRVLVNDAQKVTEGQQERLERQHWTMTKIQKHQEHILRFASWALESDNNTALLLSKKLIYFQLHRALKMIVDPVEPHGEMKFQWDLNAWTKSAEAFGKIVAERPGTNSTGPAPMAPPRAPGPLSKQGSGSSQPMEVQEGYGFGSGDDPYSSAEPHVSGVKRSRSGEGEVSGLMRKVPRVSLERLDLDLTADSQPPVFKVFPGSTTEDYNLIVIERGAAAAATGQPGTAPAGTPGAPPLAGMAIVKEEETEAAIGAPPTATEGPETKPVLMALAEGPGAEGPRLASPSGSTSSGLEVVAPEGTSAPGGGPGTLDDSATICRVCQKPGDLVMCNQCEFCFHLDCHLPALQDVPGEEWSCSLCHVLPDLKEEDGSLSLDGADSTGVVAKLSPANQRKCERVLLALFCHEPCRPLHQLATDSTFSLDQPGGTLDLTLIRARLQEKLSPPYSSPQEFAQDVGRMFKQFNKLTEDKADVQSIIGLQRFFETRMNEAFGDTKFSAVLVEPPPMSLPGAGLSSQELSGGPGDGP

[7] = biological target: proteins of HEK293T cells transiently overexpressing caspase-6 (Homo sapiens, UniProt Q9Y2X3); details: protein NOP58 (Q9Y2X3); exp_ref Probe; analysis C6
proteins of HEK293T cells transiently overexpressing caspase-6 (Homo sapiens, UniProt Q9Y2X3), sequence (Q9Y2X3 whole entry): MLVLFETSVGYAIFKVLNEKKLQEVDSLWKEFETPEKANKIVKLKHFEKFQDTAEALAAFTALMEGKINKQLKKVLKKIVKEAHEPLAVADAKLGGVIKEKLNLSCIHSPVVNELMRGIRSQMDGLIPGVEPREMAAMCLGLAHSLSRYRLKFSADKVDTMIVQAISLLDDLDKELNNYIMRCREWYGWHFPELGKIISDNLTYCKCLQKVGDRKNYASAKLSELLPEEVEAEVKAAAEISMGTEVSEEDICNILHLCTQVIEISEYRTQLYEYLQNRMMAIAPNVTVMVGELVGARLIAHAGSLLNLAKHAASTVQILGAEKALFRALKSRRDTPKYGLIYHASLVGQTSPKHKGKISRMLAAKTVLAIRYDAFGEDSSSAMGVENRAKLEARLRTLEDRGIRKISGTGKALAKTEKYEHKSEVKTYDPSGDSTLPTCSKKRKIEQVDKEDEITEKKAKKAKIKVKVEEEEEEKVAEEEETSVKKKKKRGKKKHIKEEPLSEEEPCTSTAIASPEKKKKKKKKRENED

[8] = biological target: proteins of HEK293T cells transiently overexpressing caspase-6 (Homo sapiens, UniProt P60174); details: exp_ref Probe; protein TPI1 (P60174); analysis C6
proteins of HEK293T cells transiently overexpressing caspase-6 (Homo sapiens, UniProt P60174), sequence (P60174 whole entry): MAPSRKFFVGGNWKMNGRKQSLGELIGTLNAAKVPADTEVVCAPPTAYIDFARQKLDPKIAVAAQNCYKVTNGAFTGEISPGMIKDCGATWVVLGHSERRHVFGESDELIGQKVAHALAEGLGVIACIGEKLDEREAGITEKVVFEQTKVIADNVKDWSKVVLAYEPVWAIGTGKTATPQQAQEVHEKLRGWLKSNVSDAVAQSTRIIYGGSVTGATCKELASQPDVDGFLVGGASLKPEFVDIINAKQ

[9] = biological target: proteins of HEK293T cells transiently overexpressing caspase-6 (Homo sapiens, UniProt P35998); details: exp_ref Probe; protein PSMC2 (P35998); analysis C6
proteins of HEK293T cells transiently overexpressing caspase-6 (Homo sapiens, UniProt P35998), sequence (P35998 whole entry): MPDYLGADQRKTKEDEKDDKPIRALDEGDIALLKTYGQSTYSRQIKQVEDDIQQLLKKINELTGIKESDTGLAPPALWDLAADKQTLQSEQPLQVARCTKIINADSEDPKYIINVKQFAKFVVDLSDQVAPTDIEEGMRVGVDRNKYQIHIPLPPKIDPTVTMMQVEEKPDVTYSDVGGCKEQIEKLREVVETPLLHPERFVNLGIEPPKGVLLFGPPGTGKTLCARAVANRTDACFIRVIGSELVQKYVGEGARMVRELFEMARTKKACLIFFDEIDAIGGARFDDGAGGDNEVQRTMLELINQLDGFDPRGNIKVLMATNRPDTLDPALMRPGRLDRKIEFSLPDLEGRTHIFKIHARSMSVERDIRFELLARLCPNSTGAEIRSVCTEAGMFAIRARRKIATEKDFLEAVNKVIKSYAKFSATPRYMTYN

[10] = biological target: proteins of HEK293T cells transiently overexpressing caspase-6 (Homo sapiens, UniProt O43143); details: exp_ref Probe; protein DHX15 (O43143); analysis C6
proteins of HEK293T cells transiently overexpressing caspase-6 (Homo sapiens, UniProt O43143), sequence (O43143 whole entry): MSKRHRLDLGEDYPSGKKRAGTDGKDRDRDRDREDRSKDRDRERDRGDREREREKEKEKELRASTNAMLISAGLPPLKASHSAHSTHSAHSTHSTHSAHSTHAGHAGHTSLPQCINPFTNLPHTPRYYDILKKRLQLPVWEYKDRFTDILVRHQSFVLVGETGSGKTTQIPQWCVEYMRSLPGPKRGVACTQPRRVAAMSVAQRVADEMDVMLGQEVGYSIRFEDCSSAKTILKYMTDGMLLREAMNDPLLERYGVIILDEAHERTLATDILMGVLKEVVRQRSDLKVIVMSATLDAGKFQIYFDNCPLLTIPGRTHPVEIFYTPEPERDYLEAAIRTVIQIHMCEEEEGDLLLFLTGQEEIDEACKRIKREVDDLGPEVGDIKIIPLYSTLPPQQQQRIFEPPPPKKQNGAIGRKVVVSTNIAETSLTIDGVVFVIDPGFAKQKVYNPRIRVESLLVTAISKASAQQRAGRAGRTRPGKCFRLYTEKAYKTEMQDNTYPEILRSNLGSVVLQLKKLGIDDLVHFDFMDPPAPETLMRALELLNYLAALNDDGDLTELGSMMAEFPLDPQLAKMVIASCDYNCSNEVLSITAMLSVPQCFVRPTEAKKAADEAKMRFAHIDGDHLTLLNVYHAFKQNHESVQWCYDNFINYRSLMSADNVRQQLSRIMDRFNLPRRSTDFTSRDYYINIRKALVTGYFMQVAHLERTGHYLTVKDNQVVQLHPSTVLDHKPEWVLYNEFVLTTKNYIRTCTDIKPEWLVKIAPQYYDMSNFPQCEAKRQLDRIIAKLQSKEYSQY

[11] = biological target: proteins of HEK293T cells transiently overexpressing caspase-6 (Homo sapiens, UniProt Q9NUU7); details: protein DDX19A (Q9NUU7); exp_ref Probe; analysis C6
proteins of HEK293T cells transiently overexpressing caspase-6 (Homo sapiens, UniProt Q9NUU7), sequence (Q9NUU7 whole entry): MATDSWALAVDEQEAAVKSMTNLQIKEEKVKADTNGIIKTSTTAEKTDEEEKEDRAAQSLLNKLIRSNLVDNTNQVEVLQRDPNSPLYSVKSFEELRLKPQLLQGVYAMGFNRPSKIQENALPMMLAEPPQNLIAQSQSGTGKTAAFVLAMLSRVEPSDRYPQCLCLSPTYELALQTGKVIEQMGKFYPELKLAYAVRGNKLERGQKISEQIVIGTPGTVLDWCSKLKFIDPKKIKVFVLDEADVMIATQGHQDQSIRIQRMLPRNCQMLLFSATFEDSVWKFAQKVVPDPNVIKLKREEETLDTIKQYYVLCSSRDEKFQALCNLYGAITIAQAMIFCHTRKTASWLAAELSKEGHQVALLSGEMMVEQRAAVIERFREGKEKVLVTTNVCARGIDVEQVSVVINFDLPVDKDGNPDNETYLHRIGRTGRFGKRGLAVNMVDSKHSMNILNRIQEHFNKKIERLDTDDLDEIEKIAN

[12] = biological target: T2, proteins of HEK293T cells transiently overexpressing caspase-6 (Homo sapiens, UniProt P30041); details: protein PRDX6 (P30041)
T2 sequence (P30041 1-224): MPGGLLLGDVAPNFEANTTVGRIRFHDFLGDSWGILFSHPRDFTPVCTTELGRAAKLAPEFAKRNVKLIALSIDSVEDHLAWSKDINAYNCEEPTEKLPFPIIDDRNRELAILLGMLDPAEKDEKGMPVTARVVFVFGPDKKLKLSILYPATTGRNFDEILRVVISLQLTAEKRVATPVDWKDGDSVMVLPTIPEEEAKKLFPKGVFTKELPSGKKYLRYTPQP

[13] = biological target: proteins of HEK293T cells transiently overexpressing caspase-6 (Homo sapiens, UniProt Q14152); details: exp_ref Probe; protein EIF3A (Q14152); analysis C6
[14] = biological target: T3, proteins of HEK293T cells transiently overexpressing caspase-6 (Homo sapiens, UniProt Q00325); details: protein SLC25A3 (Q00325)
T3 sequence (Q00325 50-362): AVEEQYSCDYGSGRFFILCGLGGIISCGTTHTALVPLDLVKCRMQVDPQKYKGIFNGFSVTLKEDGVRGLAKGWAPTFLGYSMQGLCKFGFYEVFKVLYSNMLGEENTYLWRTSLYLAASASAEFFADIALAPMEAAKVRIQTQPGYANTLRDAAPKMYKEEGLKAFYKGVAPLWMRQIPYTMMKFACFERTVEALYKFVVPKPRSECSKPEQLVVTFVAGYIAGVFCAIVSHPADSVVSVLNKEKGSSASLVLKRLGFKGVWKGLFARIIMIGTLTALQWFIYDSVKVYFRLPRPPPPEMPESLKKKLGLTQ

[15] = biological target: proteins of HEK293T cells transiently overexpressing caspase-6 (Homo sapiens, UniProt O75874); details: exp_ref Probe; protein IDH1 (O75874); analysis C6
proteins of HEK293T cells transiently overexpressing caspase-6 (Homo sapiens, UniProt O75874), sequence (O75874 whole entry): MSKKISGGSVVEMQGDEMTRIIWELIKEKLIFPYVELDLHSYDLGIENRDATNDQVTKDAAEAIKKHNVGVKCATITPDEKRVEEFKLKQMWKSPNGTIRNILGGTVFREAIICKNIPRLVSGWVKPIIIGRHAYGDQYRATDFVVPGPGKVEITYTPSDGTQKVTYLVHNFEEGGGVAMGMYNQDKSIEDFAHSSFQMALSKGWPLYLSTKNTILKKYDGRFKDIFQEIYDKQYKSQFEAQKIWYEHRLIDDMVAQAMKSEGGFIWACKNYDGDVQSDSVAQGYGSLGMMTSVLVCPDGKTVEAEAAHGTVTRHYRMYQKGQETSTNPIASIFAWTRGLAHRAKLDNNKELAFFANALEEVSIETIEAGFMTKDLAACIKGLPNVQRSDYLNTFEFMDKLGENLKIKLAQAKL

`C#CCOc1ccc([C@@H]2C[C@@H](C(=O)Nc3ccc(OC(F)(F)F)cc3)CN(S(=O)(=O)C=C)C2)cc1` (relative stereo) [13-t] was tested, and the enrich.exp.med [1] was 0.8961, the enrich.exp.med.lin [2] was 2.408 and the enrich.exp.med.log2 [2] was 1.268. The enrich.exp.med ([2]; exp_ref Probe, analysis C6) was 1.268, the enrich.exp.med ([3]; exp_ref Probe, analysis C6) was 0.3732 and the enrich.exp.med.lin [3] was 1.295. It also gave an enrich.exp.med.log2 [3] of 0.3732, an enrich.exp.med [4] of 0.7489 and an enrich.exp.med [5] of -0.3639. For the same molecule, the enrich.exp.med ([6]; exp_ref Probe, analysis C6) was 0.8833, the enrich.exp.med.lin [6] was 1.845 and the enrich.exp.med.log2 [6] was 0.8833. The enrich.exp.med [7] was 1.504, the enrich.exp.med [8] was 0.1365 and the enrich.exp.med [9] was 0.5412. For the same molecule, the enrich.exp.med [10] was 1.187, the enrich.exp.med [11] was 1.908 and the enrich.exp.med ([12]; exp_ref Probe, analysis C6) was 0.7015. The enrich.exp.med.lin [12] was 1.626, the enrich.exp.med.log2 [12] was 0.7015 and the enrich.exp.med [13] was 0.8938. For the same molecule, the enrich.exp.med ([14]; exp_ref Probe, analysis C6) was 0.6055, the enrich.exp.med.lin [14] was 1.522 and the enrich.exp.med.log2 [14] was 0.6055. It also gave an enrich.exp.med [15] of -0.2162.
